Measurements taken from patent US20040106651A1, “3,4-diaminopyriding tartrate and phosphate, pharmaceutical compositions and uses thereof” (priority 2001, published 2004).

Assay: Stability study in hard gelatin capsules under ICH storage conditions
Type: physicochemical
Conditions: for Stability under the storage conditions in accordance with the international recommendations: general statement; for Stability formulated in hard gelatin capsules: conclusion from tables I and II
Method: 3,4-DAP tartrate, as prepared above in example 1, was introduced into hard gelatin capsules made of gelatin of size No. 3 in a proportion of 10 mg (expressed as weight of 3,4-DAP in the free base form) per hard gelatin capsule (Hard gelatin capsules A).
In the same way and by way of comparison, hard gelatin capsules made of gelatin of size No. 3 including 10 mg of 3,4-DAP per hard gelatin capsule were prepared (Hard gelatin capsules B).
A stability study on 3,4-DAP tartrate and on 3,4-DAP, introduced respectively into hard gelatin capsules A and B, was subsequently carried out.
This study was carried out under the conditions recommended by the international recommendations for the study of the stability of active principles (International Conference on Harmonization, Draft Guideline on Stability Testing of New Drug and Product, November 1999, CPMP/ICH/2736/99).

Nc1ccncc1N.O=P(O)(O)O [3,4-DAP phosphate, 3,4-diaminopyridine Phosphate]
Stability under the storage conditions in accordance with the international recommendations: very high stability

Nc1ccncc1N.O=C(O)C(O)C(O)C(=O)O (centres unmarked) [3,4-DAP tartrate, 3,4-diaminopyridine Tartrate]
Stability formulated in hard gelatin capsules: great stability | Stability under the storage conditions in accordance with the international recommendations: very high stability

Nc1ccncc1N [3,4-DAP, 3,4-diaminopyridine, reference compound]
Stability formulated in hard gelatin capsules: unstable | Stability under the storage conditions in accordance with the international recommendations: unstable
